Measured values from patent publication US4245050A, “Process for the preparation of choline oxidase by fermentation” (Kyowa Hakko Kogyo Co., Ltd., priority 1976, dated 1981).
Structures can show the parent of a compound that is named as a salt. Where two headings read alike, the source gives them in different places.

Experiments:
[1] = test system: choline oxidase derived from C. murisepticum KY 3505; assay: Substrate specificity of choline oxidase; format: biochemical, Corynebacterium murisepticum; details: enzyme 0.4 U/ml; activity on choline chloride defined as 100
Method: (§1) The activity of choline oxidase in the experimental examples and the following examples is determined by oxidizing choline with choline oxidase to produce hydrogen peroxide, decomposing hydrogen peroxide with peroxidase in the presence of phenol and 4-aminoantipyrine to produce the pigment, and measuring the absorbancy of the pigment solution as described below.
(§2) Choline oxidase is dissolved in 0.05 mol/L Tris buffer having a pH of 8.0 to make up a specific concentration (1.5 and 0.4 U/ml respectively in case of choline oxidase derived from KY 4319 and KY 3505 strains). The solutions are then subjected to the same determination of choline oxidase as described above except that the various substances other than choline chloride shown in Table 3 are used as a substrate. The relative activities on the various substrates are calculated by defining the activity on choline chloride as 100.

[2] = test system: choline oxidase derived from B. album KY 4319; assay: Substrate specificity of choline oxidase; format: biochemical, Brevibacterium album; details: enzyme 1.5 U/ml; activity on choline chloride defined as 100
Method: as §1, §2

[3] = test system: choline oxidase derived from Brevibacterium album KY 4319; details: for oxygen consumed per 1 mol of substrate (concluded stoichiometry): conclusion from Table 3; for Amount of O2 uptake [B]: 37° C., pH 8.0
Method: (§3) In the following Experiment (1) and (2), choline oxidase, derived from Brevibacterium album KY 4319 is used.
Then, 0.5 ml of 0.05 mol/L Tris buffer (pH 8.0) containing 1.5 U/ml of choline oxidase is put in the side arm, and reaction is carried out at 37° C. During the reaction, the amount of oxygen uptake (volume) is measured at regular intervals of time. The reaction is completed in 30-40 minutes.

[4] = test system: choline oxidase derived from Brevibacterium album KY 4319; details: for hydrogen peroxide produced from 1 mol of substrate (concluded stoichiometry): conclusion from Table 4; for Amount of hydrogen peroxide [B']: 37° C., 20 minutes, pH 8.0
Method: as §3
In this experiment, 0.05 mol/L Tris buffer (pH 8.0) containing 0.001 mol/L of 4-aminoantripyrine, 0.001 mol/L of phenol and 50 mg/L of peroxidase is used as a color-forming liquid. […] The absorbancy of the reaction mixture is measured at 500 nm. The amount of hydrogen peroxide produced is calculated based on the measured value. The ratio of the amount of the hydrogen peroxide produced (μmol) to the amount of the charged substrate (μmol) is shown in Table 4.

[5] = test system: Corynebacterium murisepticum KY 3505
Method: as §1
In this experimental example, Brevibacterium album KY 4319 and Corynebacterium murisepticum KY 3505 are used. 10 ml portions of a nutrient medium having the following composition are poured into 70 ml-test tubes and sterilized at 120° C. for 15 minutes.
One loopful of the above strains are separately inoculated into the medium in the test tubes, and culturing is carried out with shaking at 30° C. for […].
After the completion of culturing, each of the culture liquors is subjected to centrifugation. The resultant microbial cells are suspended in 10 ml of 0.05 mol/L Tris buffer having a pH of 8.0 and disrupted by ultrasonic generator. The resultant mixture is subjected to centrifugation and choline oxidase activity of the supernatant is measured.

[6] = test system: Brevibacterium album KY 4319
Method: A 0.05 mol/L Tris buffer solution (pH 8.0) containing 0.01 mol/L of 4-aminoantipyrine, 0.01 mol/L of phenol and 5000 U/L of peroxidase is prepared and used as color-forming liquid. […] Reaction is carried out at 37° C. for 20 minutes and then the absorbancy of the solution is measured at 500 nm. The amount of the reacted choline chloride is calculated based on the measured value. The enzyme activity is expressed by "U" which is defined as the amount of enzyme which will decompose 1 μmole of choline in 1 minute under the above-described conditions.

[7] = test system: choline oxidase derived from B. album KY 4319
Method: An approximately 4 ml-reactor for measurement of oxygen absorption is kept at 37° C. and an oxygen electrode is inserted therein. Choline oxidase is dissolved in 0.05 mol/L Tris buffer having a pH of 8.0 to make up a concentration of 0.8 U/ml. […] The concentration of oxygen dissolved in the solution is recorded continuously by recorder while stirring the solution. Decrease in oxygen concentration for 5 minutes after the start of the reaction is calculated.
The same procedure as above is repeated except that sodium azide is not added (control).

[8] = choline chloride 0.5 g/dl (36 mmol/L) in medium
[9] = choline chloride 1.0 g/dl (72 mmol/L) in medium
[10] = choline chloride 5.0 g/dl (360 mmol/L) in medium
[11] = choline chloride 10.0 g/dl (720 mmol/L) in medium

CN(C)CCO [2-dimethylaminoethanol, 2-dimethyl-aminoethanol]
Substrate specificity (relative activity %) [1]: 8.5%
Substrate specificity (relative activity %) [2]: 7.3%

CNCCO [2-methylaminoethanol, 2-methyl-aminoethanol]
Substrate specificity (relative activity %) [1]: 0%
Substrate specificity (relative activity %) [2]: 1.0%

CC(=O)OCC[N+](C)(C)C.[Cl-] [acetylcholine chloride]
Substrate specificity (relative activity %) [1]: 0%
Substrate specificity (relative activity %) [2]: 0%

C[N+](C)(C)CC=O [betaine aldehyde]
oxygen consumed per 1 mol of substrate (concluded stoichiometry) [3]: 1 mol
[B]/[A] (O2 uptake / charged substrate) ([3]; substrate 1.25 μmol): 0.88
Amount of O2 uptake [B] ([3]; substrate 1.25 μmol): 1.10 µmol
[B]/[A] (O2 uptake / charged substrate) ([3]; substrate 2.50 μmol): 0.92
Amount of O2 uptake [B] ([3]; substrate 2.50 μmol): 2.31 µmol
[B]/[A] (O2 uptake / charged substrate) ([3]; substrate 5.00 μmol): 0.93
Amount of O2 uptake [B] ([3]; substrate 5.00 μmol): 4.67 µmol
hydrogen peroxide produced from 1 mol of substrate (concluded stoichiometry) [4]: 1 mol
[B']/[A'] (hydrogen peroxide produced / charged substrate) ([4]; substrate 0.045 μmol): 0.78
Amount of hydrogen peroxide [B'] ([4]; substrate 0.045 μmol): 0.035 µmol
[B']/[A'] (hydrogen peroxide produced / charged substrate) ([4]; substrate 0.090 μmol): 0.93
Amount of hydrogen peroxide [B'] ([4]; substrate 0.090 μmol): 0.084 µmol
[B']/[A'] (hydrogen peroxide produced / charged substrate) ([4]; substrate 0.180 μmol): 0.93
Amount of hydrogen peroxide [B'] ([4]; substrate 0.180 μmol): 0.168 µmol

C[N+](C)(C)CC(=O)O [betaine]
Substrate specificity (relative activity %) [1]: 0%
Substrate specificity (relative activity %) [2]: 0%

C[N+](C)(C)CCO.[Cl-] [choline chloride]
oxygen consumed per 1 mol of substrate (concluded stoichiometry) [3]: 2 mol
[B]/[A] (O2 uptake / charged substrate) ([3]; substrate 1.25 μmol): 1.87
Amount of O2 uptake [B] ([3]; substrate 1.25 μmol): 2.34 µmol
[B]/[A] (O2 uptake / charged substrate) ([3]; substrate 2.50 μmol): 1.89
Amount of O2 uptake [B] ([3]; substrate 2.50 μmol): 4.72 µmol
[B]/[A] (O2 uptake / charged substrate) ([3]; substrate 5.00 μmol): 1.91
Amount of O2 uptake [B] ([3]; substrate 5.00 μmol): 9.56 µmol
amount of oxygen consumed by 1 mol of substrate ([3]; summary of Table 3): 1.87 to 1.91 mol
Activity of choline oxidase ([5]; choline chloride 0.1 g/dl (7.2 mmol/L) in medium): 6.4 U/dl
Activity of choline oxidase [5, 8]: 9.3 U/dl
Activity of choline oxidase [5, 9]: 17.1 U/dl
Activity of choline oxidase ([5]; choline chloride 2.0 g/dl (144 mmol/L) in medium): 17.5 U/dl
Activity of choline oxidase [5, 10]: 12.8 U/dl
Activity of choline oxidase [5, 11]: 6.7 U/dl
Activity of choline oxidase ([6]; choline chloride 0.1 g/dl (7.2 mmol/L) in medium, 30° C. culture, supernatant of disrupted cells): 13.0 U/dl
Activity of choline oxidase [6, 8]: 35.4 U/dl
Activity of choline oxidase [6, 9]: 32.7 U/dl
Activity of choline oxidase [6, 10]: 23.4 U/dl
Activity of choline oxidase [6, 11]: 15.1 U/dl
Substrate specificity (relative activity %) [1]: 100%
hydrogen peroxide produced from 1 mol of substrate (concluded stoichiometry) [4]: 2 mol
[B']/[A'] (hydrogen peroxide produced / charged substrate) ([4]; substrate 0.045 μmol): 1.80
Amount of hydrogen peroxide [B'] ([4]; substrate 0.045 μmol): 0.081 µmol
[B']/[A'] (hydrogen peroxide produced / charged substrate) ([4]; substrate 0.090 μmol): 1.67
Amount of hydrogen peroxide [B'] ([4]; substrate 0.090 μmol): 0.150 µmol
[B']/[A'] (hydrogen peroxide produced / charged substrate) ([4]; substrate 0.180 μmol): 1.72
Amount of hydrogen peroxide [B'] ([4]; substrate 0.180 μmol): 0.310 µmol
amount of hydrogen peroxide produced from 1 mol of substrate ([4]; summary of Table 4): 1.67 to 1.80 mol
Substrate specificity (relative activity %) [2]: 100%

NCCO [ethanolamine hydrochloride]
Substrate specificity (relative activity %) [1]: 0%
Substrate specificity (relative activity %) [2]: 0%

NCC(=O)O [glycine]
Substrate specificity (relative activity %) [1]: 0%
Substrate specificity (relative activity %) [2]: 0%

CNCC(=O)O [sarcosine]
Substrate specificity (relative activity %) [1]: 0%
Substrate specificity (relative activity %) [2]: 0%

[N-]=[N+]=[N-] [sodium azide]
Inhibitor [7]: Inhibitor
enzyme activity inhibited, compared with the control ([7]; 1.7×10^-3 mol/L sodium azide, 37° C., pH 8.0, 5 minutes): 44.4%
